Measurements: patent US12180193B2, “Accelerating fibrosarcoma protein degrading compounds and associated methods of use” (Arvinas Operations, Inc., priority 2020, dated 2024)

Legend:
BRAF V600E = molecular target: T1, BRAF V600E (Homo sapiens, UniProt P15056, V600E); assay: Cellular assay of target protein degradation, T-Rex 293 cells stably transfected with HA-BRAF_V600E (HA immunofluorescence, high content imaging); type: cell-based; conditions: T-Rex 293 HA-BRAF V600E; for DC50: half maximal degradation, read-out: BRaf V600E DC50; for Dmax: maximum degradation observed
T1 construct: expressed in transfected cells
T1 sequence (P15056 whole entry V600E): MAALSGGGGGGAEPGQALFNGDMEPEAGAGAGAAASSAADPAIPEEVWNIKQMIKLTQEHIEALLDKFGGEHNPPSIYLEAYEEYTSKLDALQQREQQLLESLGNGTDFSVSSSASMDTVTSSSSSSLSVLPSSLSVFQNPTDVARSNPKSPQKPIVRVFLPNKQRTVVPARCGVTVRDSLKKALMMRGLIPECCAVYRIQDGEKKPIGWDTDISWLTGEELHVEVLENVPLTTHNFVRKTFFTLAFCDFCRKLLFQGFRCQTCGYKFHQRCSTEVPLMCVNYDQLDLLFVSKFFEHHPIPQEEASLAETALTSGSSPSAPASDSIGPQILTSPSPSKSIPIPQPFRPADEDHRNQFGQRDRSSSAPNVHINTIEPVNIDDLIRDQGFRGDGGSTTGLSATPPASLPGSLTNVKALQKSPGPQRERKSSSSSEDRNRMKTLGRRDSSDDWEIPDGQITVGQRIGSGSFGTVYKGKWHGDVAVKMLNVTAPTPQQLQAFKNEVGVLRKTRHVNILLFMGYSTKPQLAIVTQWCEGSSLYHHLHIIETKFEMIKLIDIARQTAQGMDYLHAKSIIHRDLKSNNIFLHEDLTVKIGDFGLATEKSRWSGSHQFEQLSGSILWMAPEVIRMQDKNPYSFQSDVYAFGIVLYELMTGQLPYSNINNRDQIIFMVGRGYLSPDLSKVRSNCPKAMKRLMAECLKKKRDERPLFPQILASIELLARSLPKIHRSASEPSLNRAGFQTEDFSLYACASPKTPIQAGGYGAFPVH
Outline: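 Cells are plated with 1 ng/mL doxycycline and grown 24 h. Compound is then added (final 1 μM–0.1 nM, 0.1% DMSO) for another 24 h at 37 °C, followed by fixing, HA immunostaining and imaging to obtain DC50 and Dmax.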

BRAF G466V = molecular target: T2, BRAF G466V (Homo sapiens, UniProt P15056, G466V); assay: Cellular assay of target protein degradation, T-Rex 293 cells stably transfected with HA-BRAF G466V (HA immunofluorescence, high content imaging); type: cell-based; conditions: T-Rex 293 HA-BRAF G466V; for DC50: half maximal degradation, read-out: BRaf G466V DC50; for Dmax: maximum degradation observed
T2 construct: expressed in transfected cells
T2 sequence (P15056 whole entry G466V): as the sequence (P15056 whole entry V600E) above, with G466V, E600V counted along it
Outline: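 Read-out is HA immunofluorescence by high content imaging, with Hoechst and phalloidin co-staining, giving DC50 and Dmax as a percentage of control. Compound exposure lasts 24 hours at 37° C over 30 nM to 3 pM in 0.1% DMSO, with doxycycline-induced HA-BRAF G466V.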

Row | SMILES | DC50 (BRAF V600E) | Dmax (BRAF V600E) | DC50 (BRAF G466V) | Dmax (BRAF G466V)
1 | O=C1CC[C@@H](N2Cc3cc(N4CCC(CN5CCC6(CCN(c7ccc(-c8cnc9[nH]cc(C(=O)c%10c(F)ccc(NS(=O)(=O)N%11CC[C@@H](F)C%11)c%10F)c9c8)cc7F)CC6)C5)CC4)ccc3C2=O)C(=O)N1 [Compound 259, (3R)-N-{3-[5-(4-{2-[(1-{2-[(3R)-2,6-dioxopiperidin-3-yl]-1-oxo-2,3-dihydro-1H-isoindol-5-yl}piperidin-4-yl)methyl]-2,8-diazaspiro[4.5]decan-8-yl}-3-fluorophenyl)-1H-pyrrolo[2,3-b]pyridine-3-carbonyl]-2,4-difluorophenyl}-3-fluoropyrrolidine-1-sulfonamide] | < 5 nM | 35 to 70% | < 1 nM | 35 to 70%
2 | O=C1CCC(c2ccc(C3CCN(CC4CCN(c5ccc(-c6cnc7[nH]cc(C(=O)c8c(F)ccc(NS(=O)(=O)N9CC[C@@H](F)C9)c8F)c7c6)cc5)CC4)CC3)cc2)C(=O)N1 (stereo partly drawn) [Compound 189, (3R)-N-[3-(5-{4-[4-({4-[4-(2,6-dioxopiperidin-3-yl)phenyl]piperidin-1-yl}methyl)piperidin-1-yl]phenyl}-1H-pyrrolo[2,3-b]pyridine-3-carbonyl)-2,4-difluorophenyl]-3-fluoropyrrolidine-1-sulfonamide] | 5 to 50 nM | 35 to 70% | < 1 nM | 35 to 70%
3 | O=C1CCC(N2Cc3cc(N4CCC(CN5C[C@H]6CCN(c7ccc(-c8cnc9[nH]cc(C(=O)c%10c(F)ccc(NS(=O)(=O)N%11CC[C@@H](F)C%11)c%10F)c9c8)cc7)C[C@H]6C5)CC4)ccc3C2=O)C(=O)N1 (stereo partly drawn) [Compound 3, (3R)-N-[3-(5-{4-[(3aR,7aS)-2-({1-[2-(2,6-dioxopiperidin-3-yl)-1-oxo-2,3-dihydro-1H-isoindol-5-yl)piperidin-4-yl}methyl)-octahydro-1H-pyrrolo[3,4-c]pyridin-5-yl]phenyl}-1H-pyrrolo[2,3-b]pyridine-3-carbonyl)-2,4-difluorophenyl]-3-fluoropyrrolidine-1-sulfonamide] | 5 to 50 nM | 35 to 70% | 1 to 10 nM | > 70%
4 | N#Cc1cc(-c2cnc3[nH]cc(C(=O)c4c(F)ccc(NS(=O)(=O)N5CC[C@@H](F)C5)c4F)c3c2)ccc1N1CCC(CN2CCC(c3ccc4c(c3)CN(C3CCC(=O)NC3=O)C4=O)CC2)CC1 (stereo partly drawn) [Compound 255, (3R)-N-[3-(5-{3-cyano-4-[4-({4-[2-(2,6-dioxopiperidin-3-yl)-1-oxo-2,3-dihydro-1H-isoindol-5-yl]piperidin-1-yl}methyl)piperidin-1-yl]phenyl}-1H-pyrrolo [2,3-b]pyridine-3-carbonyl)-2,4-difluorophenyl]-3-fluoropyrrolidine-1-sulfonamide] | 5 to 50 nM | 35 to 70% | < 1 nM | > 70%
5 | O=C1CCC(N2Cc3cc(C4CCN(CCOc5ccc(-c6cnc7[nH]cc(C(=O)c8c(F)ccc(NS(=O)(=O)N9CC[C@@H](F)C9)c8F)c7c6)cc5)CC4)ccc3C2=O)C(=O)N1 (stereo partly drawn) [Compound 69, (3R)-N-(3-{5-[4-(2-{4-[2-(2,6-dioxopiperidin-3-yl)-1-oxo-2,3-dihydro-1H-isoindol-5-yl]piperidin-1-yl}ethoxy)phenyl]-1H-pyrrolo[2,3-b]pyridine-3-carbonyl}-2,4-difluorophenyl)-3-fluoropyrrolidine-1-sulfonamide] | 5 to 50 nM | 35 to 70% | 1 to 10 nM | > 70%
6 | O=C1CC[C@H](N2Cc3cc(OCCCN4CC5(C4)CN(c4ccc(-c6cnc7[nH]cc(C(=O)c8c(F)ccc(NS(=O)(=O)N9CC[C@@H](F)C9)c8F)c7c6)cc4)C5)ccc3C2=O)C(=O)N1 [Compound 80, (3R)-N-{3-[5-(4-{6-[3-({2-[(3S)-2,6-dioxopiperidin-3-yl]-1-oxo-2,3-dihydro-1H-isoindol-5-yl}oxy)propyl]-2,6-diazaspiro[3.3]heptan-2-yl}phenyl)-1H-pyrrolo[2,3-b]pyridine-3-carbonyl]-2,4-difluorophenyl}-3-fluoropyrrolidine-1-sulfonamide] | < 5 nM | 35 to 70% | 1 to 10 nM | > 70%
7 | O=C1CC[C@H](N2Cc3cc(C[C@H](O)CN4CCC(c5ccc(-c6cnc7[nH]cc(C(=O)c8c(F)ccc(NS(=O)(=O)N9CC[C@@H](F)C9)c8F)c7c6)cc5)CC4)ccc3C2=O)C(=O)N1 [Compound 109, (3R)-N-{3-[5-(4-{1-[(2S)-3-{2-[(3S)-2,6-dioxopiperidin-3-yl]-1-oxo-2,3-dihydro-1H-isoindol-5-yl}-2-hydroxypropyl]piperidin-4-yl}phenyl)-1H-pyrrolo[2,3-b]pyridine-3-carbonyl]-2,4-difluorophenyl}-3-fluoropyrrolidine-1-sulfonamide] | 5 to 50 nM | 35 to 70% | 1 to 10 nM | > 70%
8 | C[C@@]12CN(CC3CCN(c4ccc5c(c4)CN(C4CCC(=O)NC4=O)C5=O)CC3)C[C@]1(C)CN(c1ccc(-c3cnc4[nH]cc(C(=O)c5c(F)ccc(NS(=O)(=O)N6CC[C@@H](F)C6)c5F)c4c3)cc1)C2 (stereo partly drawn) [Compound 2, (3R)-N-[3-(5-{4-[(3aR,6aS)-5-({1-[2-(2,6-dioxopiperidin-3-yl)-1-oxo-2,3-dihydro-1H-isoindol-5-yl]piperidin-4-yl}methyl)-3a,6a-dimethyl-octahydropyrrolo[3,4-c]pyrrol-2-yl]phenyl}-1H-pyrrolo[2,3-b]pyridine-3-carbonyl)-2,4-difluorophenyl]-3-fluoropyrrolidine-1-sulfonamide] | 5 to 50 nM | 35 to 70% | 10 to 30 nM | 35 to 70%
9 | O=C1CCC(N2Cc3cc(C4CCN(CC5(O)CCN(c6ccc(-c7cnc8[nH]cc(C(=O)c9c(F)ccc(NS(=O)(=O)N%10CC[C@@H](F)C%10)c9F)c8c7)cc6)CC5)CC4)ccc3C2=O)C(=O)N1 (stereo partly drawn) [Compound 119, (3R)-N-[3-(5-{4-[4-({4-[2-(2,6-dioxopiperidin-3-yl)-1-oxo-2,3-dihydro-1H-isoindol-5-yl]piperidin-1-yl}methyl)-4-hydroxypiperidin-1-yl]phenyl}-1H-pyrrolo[2,3-b]pyridine-3-carbonyl)-2,4-difluorophenyl]-3-fluoropyrrolidine-1-sulfonamide] | < 5 nM | 35 to 70% | < 1 nM | 35 to 70%
10 | O=C1CC[C@@H](N2Cc3cc(CN4C[C@@H]5CN(c6ccc(-c7cnc8[nH]cc(C(=O)c9c(F)ccc(NS(=O)(=O)N%10CC[C@@H](F)C%10)c9F)c8c7)cc6)C[C@@H]5C4)ccc3C2=O)C(=O)N1 [Compound 77, (3R)-N-[3-(5-{4-[(3aR,6aS)-5-({2-[(3R)-2,6-dioxopiperidin-3-yl]-1-oxo-2,3-dihydro-1H-isoindol-5-yl}methyl)-octahydropyrrolo[3,4-c]pyrrol-2-yl]phenyl}-1H-pyrrolo[2,3-b]pyridine-3-carbonyl)-2,4-difluorophenyl]-3-fluoropyrrolidine-1-sulfonamide] | 5 to 50 nM | 35 to 70% | > 30 nM | –
11 | COc1cc(N2CC3(CN(CCc4ccc(-c5cnc6[nH]cc(C(=O)c7c(F)ccc(NS(=O)(=O)N8CC[C@@H](F)C8)c7F)c6c5)cc4)C3)C2)ccc1C(=O)N[C@H]1CCC(=O)NC1=O [Compound 361, 4-{6-[2-(4-{3-[2,6-difluoro-3-({[(3R)-3-fluoropyrrolidin-1-yl]sulfonyl}amino)benzoyl]-1H-pyrrolo[2,3-b]pyridin-5-yl}phenyl)ethyl]-2,6-diazaspiro[3.3]heptan-2-yl}-N-[(3S)-2,6-dioxopiperidin-3-yl]-2-methoxybenzamide] | 5 to 50 nM | 35 to 70% | 1 to 10 nM | > 70%
